Patent EP0304279B1, “Peptide determinant associated with immunity” (THE BOARD OF TRUSTEES OF THE LELAND STANFORD JUNIOR …, priority 1987, dated 1997)

How the values were obtained:
[1] = system: clone F1-28, a MBP-specific T-cell; conditions: Zamvil et al., Nature (1986) 324:258; cited from earlier work
[2] = system: clone F1-28, a MBP-specific T-cell; assay: Stimulation of MBP-specific T-cell clone by synthetic peptide (proliferation assay); format: cell-based; conditions: T-cell clone F1-28 recognizing the autoantigen myelin basic protein
From the text: The determinant of myelin basic protein (MBP) P5-17 (Zamvil, et al., Nature, supra) contains a pattern P-S-Q-R-H-G-S-K-Y-L-A-T-A. Using the algorithm for the subject motif for predicting T-cell clones the epitope of the clone F1-28, a MBP-specific T-cell was isolated (Zamvil, et al., J. Exp. Med. (1985) 162: 2107), which clone recognizes the autoantigen myelin basic protein. A peptide corresponding to amino acids P35-47 containing two patterns GILD and RFFS was synthesized and shown to be stimulatory.
(§1) Proliferation Assay: Proliferative responses were determined as described previously (Zamvil et al., Nature (1985) 317:355). 1x10^4 T-cells were cultured with 5x10^5 X-irradiated (3,000 rad) PL/J splenic APC in 0.2 ml of culture media in 96 well flat-bottomed microtiter plates (Falcon, 3072). Peptides were added to culture giving the final concentrations indicated. At 48 hours incubation, each well was pulsed with 1 µCi ^3H-thymidine and harvested 16 hours later. The mean c.p.m. thymidine incorporation was calulated for triplicate cultures. Standard deviations from replicate cultures were within 10% mean value.

mouse T-cells = assay: Proliferation assay (3H-thymidine incorporation) of MHC-restricted T-cells with PL/J splenic APC; format: cell-based
Experimental: as §1

**Q.** For “L-D-S-I-G-R-F-F-S-G-D-R-G-A-P (LDSIGRFFSGDRGAP)”, which “stimulatory epitope defined with overlapping peptides” value [1] is on record?
**A.** stimulatory epitope

**Q.** What does the source list for “G-I-L-D-S-I-G-R-F-F-S-G-D-R-G-A-P (GILDSIGRFFSGDRGAP) [P35-47, peptide of myelin basic protein containing two patterns GILD and RFFS]”?
**A.** T-cell stimulation [2]: stimulatory; T-cell stimulation (mouse T-cells; mouse T-cells restricted by MHC I-E(u)α E(u)β): stimulatory

**Q.** For “P89-101: P89-101 of the human myelin basic protein comprising the motif HFFK (PHLIRLFSRDAPG; UniProt P02686 89-101, looked up, fragment)”, which T-cell stimulation (mouse T-cells; mouse T-cells restricted by I-A(s)α A(s)β) is on record?
**A.** stimulatory
